For the experiment, the system named is cutaneous local thermal hyperemia response. The experiment in a line: Cutaneous local thermal hyperemia test by laser Doppler flowmetry before and after chemical intervention (oral β-blocker). The class given is in vivo, human. As to conditions: subject with panic disorder, 30 minutes after oral propranolol 10 mg. Here is the method: The participants were supine during the entire test period. Cutaneous blood flow was measured by LDF (Moor DRT4, Moor Instruments Ltd, Axminster, Devon, UK). For each measurement, blood pressure was recorded continuously with a non-invasive blood pressure monitor (CareTaker, Empirical Technologies Corporation, Charlottesville, Va., USA) on the middle finger of the dominant hand throughout the procedures.
Blood flow was recorded simultaneously on the upper one-fourth of the bilateral forearm using LDF (DP12-V2 probe, 2 channels, length: 12 mm, diameter 1.5 mm; Moor Instruments Ltd.), and two recording sites were located at the radial half of the flexor and extensor aspects of the forearm, which were located according to a predefined rule. The probe was mounted to a probe holder to hold the probe in position. The extensor and flexor recording sites were located along the line between the extensor and flexor aspects of the lateral epicondyle of the humerus, respectively, and the lateral side of the styloid process of radius. The same sites were measured bilaterally with the flexor and extensor aspects in a random sequence. The recording sites were kept thermally neutral at 33° C. by a heater (SH02-SHP2 probe, Moor Instruments Ltd.) for 5 minutes for the baseline measurement, and then the temperature was increased to 42° C. by 1° C./10 seconds and maintained at 42° C. for up to 5 minutes. After completing the measurements, the holders were maintained in situ, and all of the procedures were repeated with the same recording sequence 45 minutes after the first measurement. The holders were then removed without marking after the first day of the experiment. The same procedures were conducted at the same time 1 to 3 days later, and the recording sites were relocated according to the same predefined rule.
Cutaneous red blood cell flux (RBCF), expressed as arbitrary perfusion units (PUs), was used to indicate local cutaneous blood flow, and CVC (PU/mmHg), which derived from RBCF divided by mean arterial pressure to adjust for the influence of blood pressure, was the indicator of blood flow change.
Baseline CVC, peak CVC, absolute change of peak CVC, percent change of peak CVC, 4 minutes area-under-the-curve (AUC), and time to peak flux were used as indicators of the hyperemic response during heating. The absolute change of peak CVC was defined as the peak CVC minus baseline CVC, and the percentage of peak CVC change equals to the absolute change of peak CVC divided by baseline CVC multiplied by 100%. The 4 minutes AUC was the accumulation of blood flux during the first 4 minutes of the heating period. The time to peak flux was the period from the heating started and up to peak flux.
Upon arrival in the laboratory, the subjects were arranged on chairs in a temperature- and humidity-controlled laboratory (40-60% humidity, 25±1° C.) for acclimation of 30 minutes. After the acclimation period, the thermal hyperemia test was performed at specified sampling sites. The participants were supine during the entire test period. Cutaneous blood flow was measured by LDF (Moor DRT4, Moor Instruments Ltd, Axminster, Devon, UK). For each measurement, blood pressure was recorded continuously with a non-invasive blood pressure monitor (CareTaker, Empirical Technologies Corporation, Charlottesville, Va., USA) on the middle finger of the dominant hand throughout the procedures. The sampling and data processing procedures taught in Example 1, above, also applied in the present example.
Subject (45 kg) suffering from panic disorder was sampled at the infraclavicular, parasternal and axilla sites (points (i), (j) and (l) in FIG. 2) on both the right and left sides before and after the administration of β-blocker. Specifically, the post-β-blocker sampling procedure was performed at 30 minutes after the oral administration of β-blocker, propranolol, (10 mg).

Turning to `CC(C)NCC(O)COc1cccc2ccccc12` (stereo not drawn) [propranolol], the “CVCI, max, After” value runs as follows: (Axilla, left) 1.09 PU/mmHg; (Axilla, right) 1.91 PU/mmHg; (Infraclavicular, left) 1.03 PU/mmHg; (Infraclavicular, right) 1.95 PU/mmHg; (Parasternal, left) 1.45 PU/mmHg; (Parasternal, right) 2.53 PU/mmHg. In addition, the “Initial AUC, After” value is, setting by setting: (Axilla, left) 17019 PU; (Axilla, right) 31740 PU; (Infraclavicular, left) 17298 PU; (Infraclavicular, right) 33797 PU; (Parasternal, left) 26800 PU; (Parasternal, right) 47602 PU. The “ΔCVC, After” value reads like this: (Axilla, left) 0.92 PU/mmHg; (Axilla, right) 1.63 PU/mmHg; (Infraclavicular, left) 0.88 PU/mmHg; (Infraclavicular, right) 1.76 PU/mmHg; (Parasternal, left) 1.28 PU/mmHg; (Parasternal, right) 2.36 PU/mmHg.

These data come from US20150065888A1, “METHOD AND APPARATUS FOR OBTAINING VASODILATION DATA REPRESENTING CUTANEOUS LOCAL THERMAL HYPEREMIA RESPONSE OF A SUBJECT” (NEW CHINESE BIOTECHNOLOGY CORPORATION LTD, priority 2012, published 2015).
